Reference: patent US11684592B2, “Multiresistant-tumour sensitiser” (Instituto Nacional de Neurologia Y Neurocirugia Manuel …, priority 2017, dated 2023)

Key:
C6 cells [1] = experiment: Effect on glutathione (GSH) concentration, GT10 colorimetric test; format: cell-based, rat
Protocol: Reduced glutathione (GSH) intracellular concentration were measured by a colorimetric test using the GT10 (Oxford Biomedical Research® kit), following the manufacturer's instructions. […] The controls were incubated with DMEM media only. Absorbance was read at 400 nm in Cytation3 ® cell Imaging Multi-mode reader (BioTeck, USA). It is observed that at low concentrations of Cur-[G2]-OH, the synthesis of GSH is induced in C6 cells, but at high concentrations GSH synthesis is inhibited and decrease its concentration in cells.

[2] = tested on: p62, Beclin1 or LC3 in C6 cells; experiment: Analysis of autophagy markers by immunofluorescence (simple staining); format: cell-based, rat; details: Cur-[G2]-OH 3-150 μM, 6 and 24 hours
Protocol: Simple staining: 1×10^4 C6 cells/well were cultured with 100 μL of DMEM medium in 96-well plates and incubated 24 hours. Cells were treated with different concentrations of Cur-[G2]-OH (3, 6, 15, 30, 45, 90 and 150 μM), and incubated for 6 and 24 hours. Control cells were replaced only with fresh DMEM medium. The cells were washed with cold PBS and fixed with a mixture of methanol/acetone (1:1) for 5 minutes; they were washed with PBS and incubated with 1% BSA in PBST. Subsequently, they were incubated with the primary antibody (p62, Beclin1 or LC3) at 4° C. overnight. They were washed and incubated with the fluorochrome-conjugated secondary antibody (Abcam® ab150073 Alexa fluor 488) for 1 hour at room temperature. They were washed with PBS and the nucleus stained with Hoechst 33342 (0.1 μg/ml). The images were observed on a Cytation 3® multimodal plate reader and captured and analyzed with the Gen5® 2.06 program using the DAPI (λ=377-447 nm) and GFP (λ=469-525 nm) filters.

normal cells = experiment: Toxicity to normal cells; format: cell-based; details: high concentration
[3] = tested on: Beclin-1, p62, Nrf2, eIF2a and p-eIF2α in C6 cells; experiment: Analysis of autophagy markers and Nrf2 pathway by Western blot; format: cell-based, rat; details: for levels of total eIF2-α (immunoblot) / phosphorylation of eIF2-α (p-eIF2-α, immunoblot): curcumin 2, 15 and 30 μM or Cur-[G2]-OH 6, 45 and 90 μM
Protocol: C6 cells were grown in 25 cm^2 culture bottles (Corning® N.Y.) to form a 70% confluent monolayer (approximately 4×10^6 cells) and treated with Cur-[G2]-OH (300 μM) for 24 hours. The cells were washed in cold PBS, and lysis buffer (50 mM Tris-HCl, 120 mM NaCl, 0.01% IGEPAL) was added with a protease inhibitor cocktail (Sigma® P8340) and centrifuged to recover the supernatant. Proteins were quantified by the Lowry method (Lowry et al. 1951).
[…] The membranes were blocked with skim milk and subsequently incubated with the respective primary antibody (Beclin1, ab62557; p62, ab91526; Nrf2, sc-30915; p-eIF2α, sc-12412; eIF2, sc-11386 or β-actin, sc-47778) under stirring overnight at 4° C. After incubation, the membranes were washed with a Tween 20 tris-base saline buffer (TBST) and incubated with the respective secondary antibody conjugated to horseradish peroxidase (SIGMA). The bands were visualized by chemiluminescence with the Western Blotting Luminol Reagent reagents (Santacruz Biotechnology®), and the ChemiDoc-It® TS2 Imaging System (UVP, LLC).

C6 cells from rat glioma [4] = experiment: Determination of apoptotic death by dual staining with propidium iodide and Hoechst 33342; format: cell-based; details: curcumin 100 μM or Cur-[G2]-OH 300 μM, 24 or 48 hours
Protocol: C6 cells from rat glioma (American Tissue Culture Collection, Rockville, Md., U.S.A. ATCC® CCL-107™) cultured under standard conditions in DMEM medium supplemented with Bovine Fetal Serum and 15% horse serum were used for the experiments.
1×10^4 C6 cells/well were cultured with 100 μl of Dulbecco's Modified Eagle's Medium (DMEM) medium for 24 hours in 96-well plates. The cells were treated with curcumin (100 μM), or with Cur-[G2]-OH (300 μM), or with the respective vehicle as a control. After 24- or 48-hours post-treatment, the cells were fixed with a mixture of methanol/acetone (1:1) and stained with propidium iodide (0.5 μg/ml), washed and Hoechst 33342 dye was added (0.1 μg/ml) for staining the nuclei. Cells were observed on the Cytation 3® plate reader (BioTek® Instruments, Inc.) using the DAPI (λ=377-447 nm) and Texas Red (λ=586-647 nm) filters, and the images were captured and analyzed with the Gen5 2.06® program.

[5] = Stability in acidic pH of gastric juices; format: physicochemical
[6] = tested on: Keap1, Nrf2 and p62 in C6 cells; experiment: Sequential immunofluorescence, co-location of Keap1-p62, Nrf2-p62 and Keap1-Nrf2; format: cell-based, rat; details: Cur-[G2]-OH 6, 45 or 90 µM, 24 hours
Protocol: Sequential immunofluorescence: For the protein co-location studies of Keap1-p62, Nrf2-p62 and Keap1-Nrf2, 5×10^3 C6 cells/well were grown in half-area 96 well plates and incubated for 24 hours. Subsequently, the cells were treated with Cur-[G2]-OH (6, 45 or 90 µM) and incubated for 24 hours. In control cells only DMEM medium was replaced by fresh medium. Then, cells were washed with cold PBS and fixed with paraformaldehyde (4% in PBS) or with a mix of methanol/acetone, with paraformaldehyde, cells were washed and permeabilized with PBST (this step was not performed on the cells fixed with methanol/acetone). Cells were washed again and blocked in BSA at 1% in PBST.
The cells were incubated in the first primary antibody (Keap1 or Nrf2) at 4° C. overnight, and subsequently washed and re-incubated with the fluorochrome-conjugated secondary antibody (Alexa fluor 488 Abcam® ab150129), in the dark for 1 hour at room temperature. They were washed and again blocked for 30 minutes with goat serum; The serum was removed and the solution of the second respective primary antibody (p62 or Nrf2) was placed. It was incubated at 4° C. overnight. The incubation of the secondary antibodies proceeded in the same manner as described before, but using the Alexa flour 647 antibody from Abcam® (ab150079). The nuclei were stained with Hoechst 33342 solution (0.1 μg/ml) and the images were captured on a Cytation 3® multimodal plate reader (Bio Tek®, Instruments Inc.), with the Gen5 2.06 program using DAPI filters (λ=377-447 nm), GFP (λ=469-525 nm) and Texas Red (λ=586-647 nm).

C6 cells [7] = experiment: Sensitization of tumor cells to oxidative stress (FeSO4), MTT cell viability; format: cell-based, rat
Protocol: C6 cells (1×10^5 cells/well) were seeded in 96 wells plates. At 24 h, a group of cells were treated with FeSO4 at concentrations of 50, 80, 100 and 150 μM or Cur-[G2]-OH at concentrations of 240 or 300 μM and incubated for an additional 24 hours.
Another group of cells were previously incubated by 2 h with the oxidizing agent FeSO4 at concentrations of 50, 80, 100 and 150 μM and subsequently washed for addition to cur-[G2]-OH at concentrations of 240 or 300 μM, continued to incubate until 24 h was completed. A last group of cells, first was treated with Cur-[G2]-OH at concentrations of 240 or 300 μM for 4 h and subsequently changed the medium and FeSO4 was added to concentrations of 50, 80, 100 or 150 μM continuing incubation for 20 hours more.
The colorimetric test based on the reduction of tetrazolium dye MTT (3-(4,5-dimethyltiazol-2-yl)-2,5-diphenyltetrazolium bromide) was used to determine cell viability (Terry L. et al. Cell Viability Assays. May 1, 2013). The formazan crystals were dissolved with a mixture of isopropanol/acetic acid and the absorbance was measured at 540 nm in a microplate reader (Molecular Devices, Sunnyvale, Calif., USA).
The data were statistically analyzed using a one-way ANOVA analysis, and Newman Keuls post-analysis for multiple comparisons (n=3, Mean=SEM).

C6 cells from rat glioma [8] = experiment: DNA fragmentation assay; format: cell-based; details: curcumin 100 μM or Cur-[G2]-OH 300 μM, 24 h
Protocol: To determine DNA fragmentation, C6 cells (1×10^6) were seeded in Petri dishes (100 mm) at a confluence of 70%. They were treated with curcumin (100 μM) or Cur-[G2]-OH (300 μM) and incubated for 24 and 48 hours. Controls were incubated with vehicle only (DMSO or PBS respectively).
The DNA was extracted using Trizol (Invitrogen® 15596-026), according to the supplier's specifications, and quantified on a spectrophotometer (Genesys 8®). 20 μg of DNA from each sample was deposited on a 1.5% agarose gel. Electrophoresis was performed at 100 V for 90 minutes. The gel was stained with the Hydragreen™ dye (ACTGene ACT-IDM604) and DNA detection was performed using the ethidium bromide filter and UV light on the Chemidoc-It TS2 imager photodocument (UVP, CA).

C6 cells [9] = experiment: Determination of Reactive Oxygen Species (ROS); format: cell-based, rat; details: 1 hour; for generation of ROS: curcumin 2, 15, 30 or 100 μM or Cur-[G2]-OH 6, 45, 90 or 300 μM, without NAC; for generation of ROS in the presence of N-acetyl Cysteine (NAC): with NAC 400 μM
Protocol: Intracellular generation of ROS was evaluated in real time by fluorescence microscopy using the ENZ-51011 detection kit (Enzo® Life Sciences). 5×10^3 cells per well were grown in half-area 96 wells plates (Costar 3595®) and incubated for 24 hours. Then, were incubated for 1 hour, with curcumin (2, 15, 30 or 100 μM), or Cur-[G2]-OH (6, 45, 90 or 300 μM) alone or in the presence of the ROS inhibitor N-Acetyl Cysteine (NAC, 400 μM) according to the manufacturer's instructions. As controls, pyocyanin (200 μM) was used as an inducer and NAC […] as an inhibitor, or DMEM medium with or without DMSO as a negative control. At the end of treatment, the test solutions were withdrawn, and the ROS detection solution was added. The plates were observed under bright field and fluorescence microscopy with the GFP filter (λ=469-525 nm), in the Cytation 3® multimodal reader (BioTek®, USA), and the images were captured and analyzed with the Gen5 2.06 program (BioTek®, USA). The experiments were performed five times.

[10] = Cur-[G2]-OH 300 μM, 24 h, vs untreated cells

COc1cc(/C=C/C(=O)/C=C(O)/C=C/c2ccc(OC(=O)C(C)(COC(=O)C(C)(CO)CO)COC(=O)C(C)(CO)CO)c(OC)c2)ccc1OC(=O)C(C)(COC(=O)C(C)(CO)CO)COC(=O)C(C)(CO)CO [Cur-[G-2]-OH]
decrease at GSH levels (C6 cells [1]; 300 μM, 24 h): about 50% | GSH levels (C6 cells [1]; 300 μM, 48 hours, data not shown): complete elimination of GSH levels | baseline levels of GSH (C6 cells [1]; intermediate doses 45 and 90 μM, 24 hours): causes the baseline levels of GSH to increase considerably | expression of Beclin1 (immunofluorescence) [2]: induces the expression of proteins Beclin1 and LC3, in a concentration-dependent manner | expression of LC3 (immunofluorescence) [2]: induces the expression of proteins Beclin1 and LC3, in a concentration-dependent manner | expression of p62 (immunofluorescence) [2]: significantly decreasing expression of p62 | toxicity to normal cells (normal cells): not toxic to normal cells at high concentration | expression of Beclin1 (Western blot) [3, 10]: increases the expression of Beclin1 | expression of p62 (Western blot) [3, 10]: decreases the expression of p62 | total levels of the Nrf2 protein (immunoblot) ([3]; Cur-[G2]-OH 300 μM, vs untreated cells): significant decrease in Total levels of the Nrf2 protein | levels of total eIF2-α (immunoblot) ([3]; 24 h): without substantial changes in the levels of total eIF2-α | phosphorylation of eIF2-α (p-eIF2-α, immunoblot) ([3]; 24 h): significant decrease in phosphorylation of eIF2-α | nuclear staining / apoptotic morphology (propidium iodide and Hoechst 33342) (C6 cells from rat glioma [4]): staining of the nuclei similar to that of the untreated controls | stability in acidic pH [5]: instability of Cur-[G-2]-OH in the acidic pH of gastric juices | co-location Keap1-Nrf2 in the nucleus [6]: interaction of Keap1 with Nrf2 in this subcellular compartment is observed | expression of Keap1 in nucleus and cytoplasm (immunofluorescence) [6]: significant levels are still detected, both in the nucleus and in the cytoplasm | expression of Nrf2 in cytoplasm and nucleus (immunofluorescence) [6]: rapidly induces the loss of the expression of protein Nrf2 in the cytoplasm and the attenuation of the signal in the nucleus | p62 localisation and co-location Keap1-p62 [6]: promotes the exclusion of p62 from the nucleus and its interaction with Keap1 in the cytoplasm and autophagosomes | cell viability / cytotoxicity in combination with FeSO4 (MTT) (C6 cells [7]; C6 cells first exposed to FeSO4 50-150 μM for 2 h, then Cur-[G2]-OH 240 or 300 μM, or administered simultaneously): This synergism does not exist | cell viability / cytotoxicity in combination with FeSO4 (MTT) (C6 cells [7]; C6 cells pre-incubated with Cur-[G2]-OH 240 or 300 μM for 4 h, then FeSO4 50-150 μM for 20 h): synergism between Cur-[G-2]-OH and FeSO4 | DNA fragmentation (agarose gel electrophoresis) (C6 cells from rat glioma [8]): DNA remains packed and does not migrate into the gel | generation of ROS (C6 cells [9]): promotes the generation of ROS in a concentration-depending manner | generation of ROS in the presence of N-acetyl Cysteine (NAC) (C6 cells [9]): not substantially modified with the use of an antioxidant (NAC)

COc1cc(/C=C/C(=O)CC(=O)/C=C/c2ccc(O)c(OC)c2)ccc1O [curcumin, reference compound]
levels of total eIF2-α (immunoblot) ([3]; 24 h): increases both the levels of total eIF2-α | phosphorylation of eIF2-α (p-eIF2-α, immunoblot) ([3]; 24 h): increases both the levels of total eIF2-α, and the levels of p-eIF2α | nuclear staining / apoptotic morphology (propidium iodide and Hoechst 33342) (C6 cells from rat glioma [4]): chromatin condensation (stars), nuclear fragmentation (thin arrows) and apoptotic bodies (arrowheads) | DNA fragmentation (agarose gel electrophoresis) (C6 cells from rat glioma [8]): DNA fragmentation was only evident in cells treated with curcumin | generation of ROS (C6 cells [9]): less effective at producing ROS | generation of ROS in the presence of N-acetyl Cysteine (NAC) (C6 cells [9]): slightly amplified with the use of NAC
